Source: patent US10167313B2, “Selective caspase inhibitors and uses thereof” (Genesis Technologies Limited, priority 2008, dated 2019)
Structures can show the parent of a compound that is named as a salt. Where two headings read alike, the source gives them in different places. Non-standard residues stand in square brackets, D forms with d. Residues, ends and D or L forms follow the SMILES beside them. *: point of attachment. Phg = N[C@H](C(=O)O)c1ccccc1; Cbz = O=C(OCc1ccccc1)*; OtBu = CC(C)(C)O*

Legend:
caspase-9 = caspase-9 (Homo sapiens (Human), UniProt P55211); assay: Caspase-9 Inhibitor Drug Screening Kit, fluorometric enzymatic assay
caspase-9, sequence (P55211 1-315): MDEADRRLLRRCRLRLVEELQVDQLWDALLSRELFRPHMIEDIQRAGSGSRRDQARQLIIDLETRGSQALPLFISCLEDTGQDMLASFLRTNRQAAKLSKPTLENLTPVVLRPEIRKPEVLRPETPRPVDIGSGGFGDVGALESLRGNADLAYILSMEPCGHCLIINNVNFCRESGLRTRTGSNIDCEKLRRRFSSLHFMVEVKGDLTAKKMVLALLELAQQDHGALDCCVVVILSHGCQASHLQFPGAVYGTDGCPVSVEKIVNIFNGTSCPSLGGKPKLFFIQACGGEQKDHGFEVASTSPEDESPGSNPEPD
caspase-9, sequence (P55211 331-416): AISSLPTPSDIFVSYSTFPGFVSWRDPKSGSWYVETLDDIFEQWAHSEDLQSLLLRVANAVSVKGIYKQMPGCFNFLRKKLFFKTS
Experimental: (§1) The level of inhibition of caspase-1, -3, -5, -7, -9 activity was determined by comparison of the relative fluorescence intensity in samples with or without the compound.

caspase-5 = caspase-5 (Homo sapiens (Human), UniProt P51878); assay: Caspase-5 Inhibitor Drug Screening Kit, fluorometric enzymatic assay; details: for IC50: read-out: Caspase enzymatic activity, IC50 (uM) Caspase 5, 30-minute incubation at 37° C., AFC liberation
caspase-5, sequence (P51878 137-327): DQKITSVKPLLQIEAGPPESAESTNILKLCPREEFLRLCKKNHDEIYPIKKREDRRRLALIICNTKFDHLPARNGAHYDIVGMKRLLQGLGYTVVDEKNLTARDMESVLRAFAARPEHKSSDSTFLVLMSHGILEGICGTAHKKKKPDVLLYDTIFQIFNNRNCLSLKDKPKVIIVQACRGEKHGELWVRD
caspase-5, sequence (P51878 347-434): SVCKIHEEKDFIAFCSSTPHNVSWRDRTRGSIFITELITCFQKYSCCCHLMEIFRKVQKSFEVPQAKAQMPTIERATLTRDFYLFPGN
Experimental: as §1

Hela cells = assay: Inhibition of proteolytic cleavage of PARP in staurosporine-treated live Hela cells; format: cell-based; details: for effectivity in inhibiting PARP cleavage (in words): relative to DEVD-fmk
Experimental: To test the efficacy of caspase-3 inhibitors at the cellular level, the ability of selected compounds to inhibit the proteolytic cleavage of PARP (poly ADP-ribose polymerase) was evaluated in live Hela cells.
Briefly, in this assay Hela cells are seeded in 96 well plates and incubated for 4 hours with staurosporine, a well characterized inducer of apoptosis, alone or together with different concentrations of compound (50, 25, 10 and 3 uM). After formaldehyde-based fixation, the cells are stained with a fluorescein-labeled anti-cleaved PARP antibody (Cell signaling, Cat#: 9547) and counterstained with Hoechst33342 (Invitrogen, Cat#: H3570) to mark all nuclei. Fluorescence images are taken on a Cellomics™ microscope system (Thermo Scientific, Pittsburgh, USA) with the Hoechst stain in the blue channel and the cleaved PARP antibody stain in the green channel. The percentage of cleaved PARP positive cells is determined by calculating the ratio between nuclei with a cleaved PARP antibody staining above a certain threshold and all (Hoechst positive) nuclei. The efficacy of caspase-3 inhibition is determined by calculating the ratio between cleaved PARP positive cells after staurosporine incubation together with compounds and staurosporine incubation without compounds.

Caspase 3/7 (Glo3/7) = assay: Glo3/7 assay
caspase-1 = caspase-1 (Homo sapiens (Human), UniProt P29466); assay: Caspase-1 Inhibitor Drug Screening Kit, fluorometric enzymatic assay; details: for IC50: read-out: Caspase enzymatic activity, IC50 (uM) Caspase 1, 30-minute incubation at 37° C., AFC liberation
caspase-1, sequence (P29466 120-297): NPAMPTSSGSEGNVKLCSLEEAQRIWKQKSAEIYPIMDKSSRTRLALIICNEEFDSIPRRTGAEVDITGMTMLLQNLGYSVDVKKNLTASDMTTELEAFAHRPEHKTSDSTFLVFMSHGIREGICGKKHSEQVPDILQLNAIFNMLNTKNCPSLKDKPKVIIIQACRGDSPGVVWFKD
caspase-1, sequence (P29466 317-404): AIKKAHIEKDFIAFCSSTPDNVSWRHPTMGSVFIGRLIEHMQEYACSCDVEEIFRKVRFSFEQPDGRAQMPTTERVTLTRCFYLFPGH
Experimental: as §1

caspase-3 = caspase-3 (Homo sapiens (Human), UniProt P42574); assay: Caspase-3 Inhibitor Drug Screening Kit, fluorometric enzymatic assay; format: biochemical; details: for IC50: 30-minute incubation at 37° C., AFC liberation
caspase-3, sequence (P42574 29-175): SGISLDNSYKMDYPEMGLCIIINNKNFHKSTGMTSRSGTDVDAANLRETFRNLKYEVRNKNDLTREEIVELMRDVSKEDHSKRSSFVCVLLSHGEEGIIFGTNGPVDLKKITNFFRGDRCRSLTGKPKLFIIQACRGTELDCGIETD
caspase-3, sequence (P42574 176-277): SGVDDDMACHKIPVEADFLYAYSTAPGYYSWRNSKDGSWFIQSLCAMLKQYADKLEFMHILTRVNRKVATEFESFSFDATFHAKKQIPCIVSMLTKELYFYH
Experimental: as §1

caspase-7 = caspase-7 (Homo sapiens (Human), UniProt P55210); assay: Caspase-7 Inhibitor Drug Screening Kit, fluorometric enzymatic assay
caspase-7, sequence (P55210 24-198): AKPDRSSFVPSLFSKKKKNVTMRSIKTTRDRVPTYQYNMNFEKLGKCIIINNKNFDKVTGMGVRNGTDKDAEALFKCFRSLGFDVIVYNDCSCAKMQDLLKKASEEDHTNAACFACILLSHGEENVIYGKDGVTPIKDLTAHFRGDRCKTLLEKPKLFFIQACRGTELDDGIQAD
caspase-7, sequence (P55210 207-303): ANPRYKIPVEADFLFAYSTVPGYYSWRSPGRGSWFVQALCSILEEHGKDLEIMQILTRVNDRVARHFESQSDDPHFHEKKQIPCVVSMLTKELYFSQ
Experimental: as §1

[1] = read-out: Caspase enzymatic activity, IC50 (uM) Caspase 9, 30-minute incubation at 37° C., AFC liberation
[2] = Homo sapiens, 50 uM, relative to DEVDFMK, read-out: % of inhibition with compound relative to DEVDFMK
[3] = Homo sapiens, read-out: % inhibition of PARP cleavage at 50 uM compound, staurosporine 4 hours, 50 uM compound
[4] = read-out: Caspase enzymatic activity, IC50 (uM) Caspase 7, 30-minute incubation at 37° C., AFC liberation

Row | SMILES | IC50 (caspase-9; [1]) [µM] | IC50 (caspase-5) [µM] | inhibition at 50 µM (Hela cells; [2]) [%] | inhibition at 50 µM (Hela cells; [3]) [%] | IC50 (caspase-1) [µM] | IC50 (caspase-3) [µM] | other results
1 | CC(C)[C@H](NC(=O)[C@H](Cc1c[nH]c2ccccc12)NC(=O)[C@H](CC(=O)O)NC(=O)OCc1ccccc1)C(=O)N[C@H](/C=C/S(C)(=O)=O)CC(=O)O [Compound 88, Z-Asp-Trp-Val-Aspmethyl vinyl sulfone] | > 3.33 | > 3.33 | 50 | 45 |  |  | 
2 | CC(C)[C@H](NC(=O)[C@H](Cc1ccc2ccccc2n1)NC(=O)[C@H](CC(=O)O)NC(=O)OCc1ccccc1)C(=O)N[C@H](/C=C(\Cl)S(C)(=O)=O)CC(=O)O [Compound 48, Z-Asp-Ala(2′-quinolyl)-Val-Asp- αchlorovinyl methylsulfone] |  | > 3.33 | 65 | 45 | > 3.33 |  | IC50 (Caspase 3/7 (Glo3/7)): 0.1 µM; effectivity in inhibiting PARP cleavage (in words) (Hela cells): showing effectivity
3 | CS(=O)(=O)/C=C/[C@@H](N)CC(=O)O.Cc1ccc(S(=O)(=O)O)cc1 [Compound 93, Aspmethyl vinyl sulfone tosyl salt] |  |  |  |  |  | > 10 | activity against caspase-3 (in words) (caspase-3): devoid of any activity
4 | CC(C)[C@H](NC(=O)[C@H](Cc1ccc2ccccc2n1)NC(=O)[C@H](CC(=O)OC(C)(C)C)NC(=O)OCc1ccccc1)C(=O)N[C@H](/C=C/S(=O)(=O)N1CCOCC1)CC(=O)OC(C)(C)C [Compound 66, Z-Asp(β-tert-Butyl)-Ala(2′-quinolyl)-Val-Asp(β-tert-Butyl)morpholine vinyl sulfone] |  |  |  | 25 |  |  | 
5 | COC(=O)CC[C@H](NC(=O)[C@H](CC(=O)OC)NC(=O)OCc1ccccc1)C(=O)N[C@H](C(=O)N[C@@H](CC(=O)OC)C(=O)CF)C(C)C [DEVD-fmk, reference compound] |  |  |  | 85 |  |  | IC50 (Hela cells; Homo sapiens, staurosporine): 20 µM
6 | CC(C)[C@H](NC(=O)[C@H](Cc1ccc(O)cc1)NC(=O)OCc1ccccc1)C(=O)N[C@@H](C)C(=O)N[C@H](/C=C/S(=O)(=O)c1ccccc1)CC(=O)O [Compound 96, Z-Tyr-Val-Ala-Asp phenyl vinyl sulfone] | > 10 | > 3.33 |  |  |  | > 10 | IC50 (caspase-7; [4]): > 10 µM
7 | CC(C)(C)OC(=O)C[C@H](N)/C=C/S(=O)(=O)c1ccccc1 [Compound 37, Asp Vinyl phenyl sulfone tosyl salt] |  |  |  |  |  | > 2 | 
8 | CC(C)[C@H](NC(=O)[C@H](Cc1ccccn1)NC(=O)[C@H](CC(=O)O)NC(=O)OCc1ccccc1)C(=O)N[C@H](/C=C/S(=O)(=O)c1ccccc1)CC(=O)O [Compound 85, Z-Asp-Ala(2′-pyridyl)-Val-Aspphenyl vinylsulfone] | > 3.33 | > 3.33 |  | 40 | > 3.33 |  | 
9 | Cc1ccc(S(=O)(=O)N[C@@H](Cc2ccc3ccccc3n2)C(=O)N[C@H](C(=O)N[C@H](/C=C(\Cl)S(C)(=O)=O)CC(=O)O)C(C)C)cc1 [Compound 50, Ts-Ala(2′quinolyl)-Val-Asp- αchlorovinyl methylsulfone] |  |  |  |  | > 3.33 | > 3.33 | activity against caspase-3 (in words) (caspase-3): The same result was observed
10 | CC(C)[C@H](NC(=O)OCc1ccccc1)C(=O)N[C@H](/C=C/S(C)(=O)=O)CC(=O)O [Compound 61, Z-Val-Aspmethyl vinyl sulfone] | > 3.33 | > 3.33 | 5 | 5 | > 3.33 | > 3.33 | activity against caspase-3 (in words) (caspase-3): abolished completely the activity; IC50 (caspase-7; [4]): > 3.33 µM
11 | CC(C)[C@H](NC(=O)[C@@H](NC(=O)[C@H](CC(=O)O)NC(=O)OCc1ccccc1)C1Cc2ccccc2C1)C(=O)N[C@H](/C=C/S(=O)(=O)C(C)C)CC(=O)O [Compound 68, Z-Asp-Indanylglycine-Val-Aspisopropyl vinyl sulfone] | > 3.33 | > 3.33 | 50 | 30 | > 3.33 |  | 
12 | CC(C)[C@H](NC(=O)[C@H](Cc1ccc2ccccc2n1)NC(=O)[C@H](CC(=O)O)NC(=O)OCc1ccccc1)C(=O)N[C@H](/C=C/S(C)(=O)=O)CC(=O)O [Compound 55, Z-Asp-Ala(2′-quinolyl)-Val-Aspmethyl vinyl sulfone] | > 3.33 | > 10 | 60 | 40 | > 10 |  | IC50 (Caspase 3/7 (Glo3/7)): 0.1 µM; inhibition at 10 µM (caspase-9; read-out: Inhibition of Caspase-9): 57%; inhibitory activity for caspase-9 (in words) (caspase-9; tested dose-range 1-3333 nM): No significant inhibitory activity; inhibition at 10 µM (caspase-5; read-out: Inhibition of Caspase-5): 21%; inhibitory activity for caspase-5 (in words) (caspase-5; tested dose-range 1-3333 nM): No significant inhibitory activity; inhibition at 10 µM (caspase-1; read-out: Inhibition of Caspase-1): 25%; inhibitory activity for caspase-1 (in words) (caspase-1; tested dose-range 1-3333 nM): No significant inhibitory activity; effectivity in inhibiting PARP cleavage (in words) (Hela cells): showing effectivity
13 | CC(C)[C@H](NC(=O)[C@H](Cc1ccc(O)cc1)NC(=O)[C@H](CC(=O)O)NC(=O)OCc1ccccc1)C(=O)N[C@H](/C=C/S(C)(=O)=O)CC(=O)O [Compound 76, Z-Asp-Tyr-Val-Aspmethyl vinyl sulfone] | > 3.33 | > 3.33 | 60 | 55 | > 3.33 |  | IC50 (Caspase 3/7 (Glo3/7)): 0.04 µM; reduction of the percentage of PARP positive cells after staurosporine treatment (Hela cells): more than 50%
14 | CC(C)[C@H](NC(=O)[C@H](CCC(=O)O)NC(=O)[C@H](Cc1ccc(O)cc1)NC(=O)OCc1ccccc1)C(=O)N[C@H](/C=C/S(C)(=O)=O)CC(=O)O [Compound 82, Z-Tyr-Glu-Val-Aspmethyl vinyl sulfone] |  | > 3 |  |  |  |  | IC50 (caspase-7; [4]): > 5 µM
15 | CC(C)[C@H](NC(=O)[C@H](CCC(=O)O)NC(=O)[C@H](CC(=O)O)NC(=O)OCc1ccccc1)C(=O)N[C@H](/C=C/S(C)(=O)=O)CC(=O)O [Compound 59, Z-Asp-Glu-Val-Aspmethyl vinyl sulfone] |  | > 3.33 | 70 | 45 |  |  | IC50 (caspase-9): 0.509 µM; IC50 (caspase-7): 0.042 µM; effectivity in inhibiting PARP cleavage (in words) (Hela cells): showing effectivity
16 | COC(=O)C[C@@H](/C=C/S(C)(=O)=O)NC(=O)[C@@H](NC(=O)[C@@H](NC(=O)[C@H](CC(=O)OC)NC(=O)OCc1ccccc1)C1Cc2ccccc2C1)C(C)C [Compound 51, Z-Asp(β-methyl)-Indanylglycine-Val- Asp(β-methyl)methyl vinyl sulfone] | > 3 | > 3 | 80 | 65 | > 3 |  | IC50 (caspase-7; [4]): > 3 µM
17 | CC(C)[C@H](NC(=O)[C@@H](Cc1ccc2ccccc2n1)NC(=O)[C@H](CC(=O)O)NC(=O)OCc1ccccc1)C(=O)N[C@H](/C=C/S(=O)(=O)c1ccccc1)CC(=O)O (stereo in doubt) [Compound 70, Z-Asp-(D,L Ala(2′-quinolyl))-Val- Aspphenyl vinylsulfone] | > 10 | > 10 |  |  |  | 0.3 | IC50 (caspase-7; [4]): > 10 µM
18 | CC(C)[C@H](NC(=O)[C@@H](Cc1ccc2ccccc2n1)NC(=O)[C@H](CC(=O)O)NC(=O)OCc1ccccc1)C(=O)N[C@H](/C=C/S(C)(=O)=O)CC(=O)O (stereo in doubt) [Compound 71, Z-Asp-(D,L Ala(2′-quinolyl))-Val- Aspmethyl vinylsulfone] | > 10 | > 10 |  |  | > 10 |  | IC50 (caspase-7; [4]): 8.9 µM
19 | CC(C)[C@H](NC(=O)[C@H](Cc1ccc2ccccc2n1)NC(=O)[C@H](CC(=O)O)NC(=O)OCc1ccccc1)C(=O)N[C@H](/C=C/S(=O)(=O)Oc1ccccc1)CC(=O)O [Compound 65, Z-Asp-Ala(2′-quinolyl)-Val-Aspphenoxy vinyl sulfone] |  | > 3.33 | 40 | 30 |  |  | IC50 (Caspase 3/7 (Glo3/7)): 0.2 µM
20 | CC(C)(C)OC(=O)C[C@@H](/C=C/S(=O)(=O)c1ccccc1)NC(=O)OC(C)(C)C [Compound 36, Boc-Asp-vinyl phenyl sulfone] |  |  |  |  |  | > 2 | 
21 | CC(C)[C@H](NC(=O)[C@@H](NC(=O)[C@H](CC(=O)OC(C)(C)C)NC(=O)OCc1ccccc1)c1ccccc1)C(=O)O [Compound 16, Z-Asp(β-tert-Butyl)-Phg-Val-OH.] (Cbz-Asp(OtBu)-[Phg]-Val-OH) |  |  |  |  |  | > 2 | activity against caspase-3 (in words) (caspase-3): devoid of any activity
22 | CC(C)(C)OC(=O)C[C@H](N)/C=C/S(C)(=O)=O.Cc1ccc(S(=O)(=O)O)cc1 (stereo in doubt) [Compound 33, Asp(β-tert-butyl)methyl vinyl sulfone tosyl salt] |  |  |  |  |  | > 10 | activity against caspase-3 (in words) (caspase-3): devoid of any activity
